{
  "source": "patent US8318664B2",
  "about": "“Unacylated ghrelin fragments as therapeutic agent in the treatment of obesity” (Alize Pharma SAS, priority 2007, dated 2012)",
  "key": {"[1]": {"test_system": "hamster HIT-T15 β-cells", "test": "MTT cell survival assay in HIT-T15 β-cells", "assay_type": "cell-based", "settings": "serum deprived medium with IFN-γ/TNF-α/IL-1β", "description": "MTT experiments were also performed in hamster HIT-T15 β-cells, to test the survival effect of UAG (1-28) or its fragments UAG (1-14), UAG (1-18), UAG (1-5) and UAG (17-28) in serum deprived medium, either alone or with IFN-γ/TNF-α/IL-1β. As for the experiments performed on INS-1E β-cells, the peptides were tested at increasing concentrations, ranging from 0.1 nM to 100 nM.\nThe survival effect of UAG (6-13), UAG (8-13), UAG (8-12), UAG (8-11), UAG (9-12) and UAG (9-11) was assessed in cytokine-treated HIT-T15 β-cells.\nThe protective effects of peptides UAG (8-13) and UAG (8-12) were found similar to those of UAG (1-14) and UAG (1-18). A peptide made of the inverse sequence of UAG (1-14) and named UAG (14-1), was used as negative control for these experiments (FIG. 5A). […] These effects were however lower than those of UAG (6-13) (FIG. 5B).\nUAG fragments with alanine (Ala) substitutions at different amino acid positions (6 to 13) were tested with regards to their survival effects in HIT-T15 hamster β-cells. The cells were cultured in serum deprived medium, either alone or with IFN-γ/TNF-α/IL-1β. The peptides were tested at the concentrations of 1 nM to 100 nM. […] Under treatment with cytokines, where cell survival was reduced by ≈18% with respect to serum starved conditions, all Ala substitutions, except those at positions 10 and 11, completely reversed cell death and brought the survival rate to levels that were even higher than those under serum-free conditions, at both 1 nM and 100 nM concentrations. These effects were similar to those elicited by the original peptide UAG (6-13) (FIG. 11B).\nParticularly, the best effect was exerted by Gly 6-UAG (6-13), whereas the lowest was seen using AcSer 6-UAG (6-13), AcSer 6-(D)Pro 7-UAG (6-13) (FIG. 12B).\nHamster HIT-T15 insulin-secreting β-cells were obtained and cultured as described (Refs. 14, 4). INS-1E rat β-cells were kindly provided by Prof. Claes B. Wollheim (University Medical Center, Geneva, Switzerland) and cultured as described (Refs. 14, 4). Cell culture reagents were from Invitrogen (Milano, Italy). Cytokines were from Biosource (Invitrogen, Italy).\nCell survival was assessed by 3-[4,5-dimethylthiazol-2-yl]-2,5diphenyltetrazolium bromide (MTT) as described previously (Ref. 4). Cells were seeded on 96-well plates at a density of 5×10^3 cells/well. After treatments, cells were incubated with 1 mg/ml MTT for ≈1 h. The medium was aspirated, and the formazan product solubilized with 100 μl DMSO. Viability was assessed by spectrophotometry at 570 nm absorbance using a 96-well plate reader."}, "[2]": {"test_system": "HIT-T15 β-cells", "test": "Cytokine-induced apoptosis in HIT-T15 β-cells", "assay_type": "cell-based, hamster", "settings": "24 h serum-free medium with IFN-γ/TNF-α/IL-1β, 1, 10, 100 nM", "description": "HIT-T15 β-cells were cultured for 24 h in serum-free medium, either alone or with IFN-γ/TNF-α/IL-1β. In both cell lines, apoptosis increased under cytokine treatment, with respect to serum starvation alone. […] UAG (14-1), the inverse sequence of UAG (1-14), was used as negative control, whereas UAG (1-28), was used as positive control in each experiment."}, "[3]": {"test_system": "C57BL/6J male mice on high fat diet", "test": "High fat diet (HFD) pre-diabetic/onset obesity model in C57BL/6J mice", "assay_type": "in vivo, mouse", "description": "In order to assess the effects of UAG and cyclic UAG (6-13) on the metabolic responses to a high fat diet, ten (10) week old C57BL/6J male mice were allowed to acclimatize in the animal facility for 1 week. The mice were fed a standard chow (also referred herein as “normal diet” or “ND”, 9% kcal fat) and were maintained in 12 hour:12 hour light:dark conditions at 21° C. (FIG. 17).\nAt 11 weeks, the mice were separated into 2 different streams (n=10): the first stream consisted in 4 weeks of normal diet and the second stream consisted in 2 weeks of normal diet followed by 2 weeks of high fat diet (also referred herein as “HFD”, 41% kcal fat) with Intraperitoneal Glucose Tolerance Testing (IPGTT) (also referred herein as “IPGTT”) and Intraperitoneal Insuline Tolerance Testing (also referred herein as “IPITT”). Baseline 24 h food intake and IPGTTs were run before pump implantation (FIG. 17).\nAlzet 1004 micro-osmotic pumps containing saline, UAG or cyclic UAG (6-13) were implanted at week 0 of the procedure depicted in FIG. 17 in the mice of the two streams (sc., interscapular) under isoflurane anesthesia and peri-operative carprofen analgesia (5 mg/kg sc.). UAG or cyclic UAG (6-13) peptides were infused at 4 nmol/kg/hr.\nBody weight and 24 h food intake were measured weekly for 4 weeks and IPGTTs were performed bi-weekly for 4 weeks. […] The suppression in body weight gain observed in peptide-treated mice can therefore not be explained by a reduced food intake.\nGTTs were performed following a 6 h fast starting at 8 am, then ˜100 μl of blood was collected from the tail vein (t=0) for measurement of insulin under fasting conditions (no anesthesia). Mice were injected ip. with 2 g/kg glucose in saline solution. Glucose was then measured using a glucometer using ˜0.5 μl of tail vein blood at t=0, 15, 30, 45, 60 and 120 minutes. During the GTT at wk 4 samples of ˜25 μl of tail vein blood were also collected at 15, 30 and 120 minutes for insulin determination.\nThe day after the final IPGTT, mice were fasted for 4 h starting at 8 am, then injected with human insulin (Actrapid, Novo Nordisk) at 0.5 IU/kg. Glucose in tail vein blood (˜0.5 μl) was measured with a glucometer at t=0, 15, 30, 45, 60 and 120 minutes (no anesthesia).\nTail vein blood glucose was measured by glucometer biweekly from free-fed mice in the non-IPGTT experimental streams (no anesthesia)."}, "[4]": {"test_system": "UAG receptor on HIT-T15 pancreatic β-cells", "test": "Competition with [125I-Tyr4]-UAG for binding sites on HIT-T15 membranes", "parameters": "species or system hamster", "description": "(§1) The ability of the fragment UAG (6-13) to compete in a concentration-dependent manner with [^125I-Tyr^4]-UAG for HIT-T15 (FIG. 10A) and INS-1E (FIG. 10B) binding sites was assayed. As shown in FIGS. 10A and 10B, unlabelled UAG (1-28) and UAG (6-13) competed with a similar efficacy and in a concentration-dependent fashion with [^125I-Tyr^4]-UAG for such binding sites in both cell lines.\n(§2) Membranes from hamster HIT-T15 and rat INS-1E pancreatic β-cells were prepared and assayed for the presence of [^125I-Tyr^4]-UAG binding. The ability of UAG fragments to compete with the radioligand for such binding sites has been evaluated as previously described (Ref. 4). Data are presented as mean±S.E.M. of three independent experiments."}, "[5]": {"test_system": "UAG receptor on INS-1E pancreatic β-cells", "test": "Competition with [125I-Tyr4]-UAG for binding sites on INS-1E membranes", "parameters": "species or system rat", "description": "as §1, §2"}},
  "note": "Entries after “also recorded” stand apart in the source; their conditions may differ. No end group written: not given here.",
  "data": [
    {"substance": "EHQRVQ [UAG (8-13)]", "values": [
      {"measurement": "cell survival (MTT)", "setting": "[1]", "value": "significant protective effect at all the concentrations examined; also recorded: strongly effective in increasing survival"},
      {"measurement": "antiapoptotic effect (cytokine-induced apoptosis)", "setting": "[2]", "value": "significantly inhibited apoptosis at 10 and 100 nM; also recorded: strongest antiapoptotic effect"}
    ]},
    {"substance": "Glu-His-Gln-Arg-Val (EHQRV; listed as Homo Sapiens) [UAG (8-12)]", "values": [
      {"measurement": "cell survival (MTT)", "setting": "[1]", "value": "strongly effective in increasing survival"},
      {"measurement": "antiapoptotic effect (cytokine-induced apoptosis)", "setting": "[2]", "value": "some protective effect only at 100 nM; also recorded: strongest antiapoptotic effect"}
    ]},
    {"substance": "Ser-Pro-Glu-His-Gln-Arg-Val-Gln (cyclic) (SPEHQRVQ; cyclic; (1)..(8) Cyclic; listed as Homo sapiens) [cyclic UAG (6-13)]", "values": [
      {"measurement": "body weight gain", "setting": "[3]; HFD, 4 nmol/kg/hr sc. infusion, compared to saline-HFD", "value": "suppressed body weight gain"},
      {"measurement": "glucose levels in fasting or fed state", "setting": "[3]; HFD, pre-diabetic, normoglycemic conditions", "value": "does not significantly affect glucose levels"},
      {"measurement": "HFD-induced insulin resistance (insulin tolerance test, area above the glucose curve)", "setting": "[3]; IPITT, HFD", "value": "restores insulin resistance to a level that is comparable to ND control"},
      {"measurement": "HFD-induced glucose intolerance (IPGTT)", "setting": "[3]; after 2 weeks on the HFD", "value": "prevents glucose intolerance"},
      {"measurement": "reduction of eWAT normalized for body weight", "setting": "[3]; at 4 weeks, HFD", "value": "about 28%"},
      {"measurement": "weight of epididymal white adipose tissue (eWAT)", "setting": "[3]; at 4 weeks, HFD", "value": "lower than that of the control mice fed on the HFD"}
    ]},
    {"substance": "UAG (1-13): fragment named only in b101 as binding to the UAG receptor; possibly a misprint (GSSFLSPEHQRVQ)", "values": [
      {"measurement": "binding to the UAG receptor", "setting": "[4]", "value": "recognized and bound"},
      {"measurement": "binding to the UAG receptor", "setting": "[5]", "value": "recognized and bound"}
    ]}
  ]
}
